Results taken from US12187716B2, “TYK2 kinase inhibitors” (SAREUM LIMITED, priority 2018, dated 2025).
Where two headings read alike, the source gives them in different places.

Assays:
CYP1A2 = target: T1, CYP1A2 (Homo sapiens, UniProt P05177); assay: Cytochrome P450 inhibition assay, CYP1A2; assay type: in vitro ADME; conditions: pooled human liver microsomes, probe Phenacetin
T1 sequence (P05177 1-516): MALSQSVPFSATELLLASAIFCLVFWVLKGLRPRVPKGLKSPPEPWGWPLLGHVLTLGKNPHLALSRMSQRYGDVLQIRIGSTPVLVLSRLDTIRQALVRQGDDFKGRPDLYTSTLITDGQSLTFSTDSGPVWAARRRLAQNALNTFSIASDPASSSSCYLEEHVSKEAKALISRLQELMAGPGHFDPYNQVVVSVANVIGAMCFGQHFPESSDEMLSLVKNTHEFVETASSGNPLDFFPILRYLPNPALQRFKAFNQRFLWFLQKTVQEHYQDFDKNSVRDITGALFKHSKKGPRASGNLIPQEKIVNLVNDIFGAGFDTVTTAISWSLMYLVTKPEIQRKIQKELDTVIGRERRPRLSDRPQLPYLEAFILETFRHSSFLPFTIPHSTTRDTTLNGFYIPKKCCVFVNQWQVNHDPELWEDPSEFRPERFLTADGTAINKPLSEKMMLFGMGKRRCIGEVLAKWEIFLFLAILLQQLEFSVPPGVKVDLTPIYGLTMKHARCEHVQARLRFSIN
Experimental: (§1) The susceptibility of Compounds (2) and (3) to potential drug-drug interactions was tested by assaying their abilities to inhibit various cytochrome P450 isoforms. Prior art Compound B (see Example 3 above) was also tested as a comparative example. Test compounds, prepared and serially diluted in DMSO, were incubated at six concentrations (1% DMSO final) with pooled human liver microsomes in the presence of probe substrate for each isoform, and their effects on the metabolism of probe substrates determined. Incubations (in 96-well plates) were carried out at 37° C. in 0.1 M Tris buffer, pH 7.4, with reactions initiated by the addition of cofactor, NADPH (1 mM final concentration). At the specified times, reactions were terminated with acetonitrile containing an analytical internal standard, samples were centrifuged and the supernatant fractions were analysed for probe substrate metabolites by mass spectrometry (LC-MS/MS). The instrument responses were normalised to internal standard and compared to the appropriate solvent controls to determine the amount of metabolite formed from the probe substrates relative to these “uninhibited” controls. […] [table]

CYP3A4 = target: T2, CYP3A4 (Homo sapiens, UniProt P08684); assay: Cytochrome P450 inhibition assay, CYP3A4; assay type: in vitro ADME; conditions: pooled human liver microsomes
T2 construct: from tissue; host or cells: pooled human liver microsomes
Experimental: as §1

JAK3 = JAK3 (Homo sapiens, UniProt P52333); assay: JAK3 kinase inhibition assay (33P-ATP filter binding, Reaction Biology)
pSTAT3 in HT29 cells = assay: pSTAT3 inhibition in response to IL-22 stimulation in serum starved HT29 cells; assay type: cell-based; conditions: for inhibition at 10 µM: HT-29, HT29 cells, 10 ng/ml human IL-22, 10 μM compound; for IC50: Homo sapiens, HT-29, HT29 cells, 10 ng/ml human IL-22
Experimental: HT29 cells were serum starved overnight before the four test compounds were diluted to generate a 9-point semi-log dose dilution with a top concentration of 10 μM, plus vehicle control. HT29 cells were incubated with the test compounds for 20 min at 37° C. HT29 cells were incubated for a further 15 min with 10 ng/ml human IL-22 before cells were fixed with 4% PFA for 10 min, and 90% methanol for 30 min before being labelled with a phospho-STAT3Y705 antibody (CST #9145). Cells were rinsed three times using 0.5% BSA/PBS solution before being incubated with Alexa-488 anti-rabbit secondary antibodies.
Mean fluorescence intensity of phospho-STAT3 in single cells was analysed by flow cytometry using an Intellicyt iQue instrument and FlowJo software. The IC50 was determined using a four-parameter analysis following removal of background signal and normalisation to the DMSO control.

TYK2 = TYK2 (Homo sapiens, UniProt P29597); assay: TYK2 kinase inhibition assay (33P-ATP filter binding, Reaction Biology)
[1] = Hepatocyte stability assay, mouse; assay type: in vitro ADME; conditions: male, CD-1, pooled hepatocytes, 37° C.
Experimental: Test and control compounds were incubated with hepatocytes at 37° C. Aliquots were removed at 6 timepoints over a one hour period. Samples were centrifuged and the supernatant fractions analysed for parent compound by mass spectrometry (LC-MS/MS).
The amount of compound remaining (expressed as %) was determined from the MS response in each sample relative to that in the T=0 samples, and used to determine the half-life and intrinsic clearance of the compound.

CYP2C8 = target: T3, CYP2C8 (Homo sapiens, UniProt P10632); assay: Cytochrome P450 inhibition assay, CYP2C8; assay type: in vitro ADME; conditions: pooled human liver microsomes, probe Amodiaquine
T3 construct: from tissue; host or cells: pooled human liver microsomes
T3 sequence (P10632 1-490): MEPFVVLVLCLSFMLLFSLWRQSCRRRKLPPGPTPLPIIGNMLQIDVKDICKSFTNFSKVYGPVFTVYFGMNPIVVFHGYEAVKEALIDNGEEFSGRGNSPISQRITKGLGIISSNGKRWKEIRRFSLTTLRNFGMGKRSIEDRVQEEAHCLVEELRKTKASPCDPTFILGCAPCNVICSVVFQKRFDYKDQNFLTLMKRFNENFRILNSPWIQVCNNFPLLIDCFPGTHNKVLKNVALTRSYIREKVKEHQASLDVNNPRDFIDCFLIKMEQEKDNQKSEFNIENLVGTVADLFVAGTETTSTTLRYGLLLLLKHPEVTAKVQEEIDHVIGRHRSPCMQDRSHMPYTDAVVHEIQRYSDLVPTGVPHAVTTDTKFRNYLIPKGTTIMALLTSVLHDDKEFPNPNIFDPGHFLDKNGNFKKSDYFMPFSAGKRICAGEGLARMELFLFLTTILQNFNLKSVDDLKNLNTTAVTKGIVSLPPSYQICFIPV
Experimental: as §1

[2] = probe Midazolam, read-out: CYP3A4 (MID) IC50
[3] = probe Testosterone, read-out: CYP3A4 (Test) IC50

Chain of TYK2 (P29597 833-1187): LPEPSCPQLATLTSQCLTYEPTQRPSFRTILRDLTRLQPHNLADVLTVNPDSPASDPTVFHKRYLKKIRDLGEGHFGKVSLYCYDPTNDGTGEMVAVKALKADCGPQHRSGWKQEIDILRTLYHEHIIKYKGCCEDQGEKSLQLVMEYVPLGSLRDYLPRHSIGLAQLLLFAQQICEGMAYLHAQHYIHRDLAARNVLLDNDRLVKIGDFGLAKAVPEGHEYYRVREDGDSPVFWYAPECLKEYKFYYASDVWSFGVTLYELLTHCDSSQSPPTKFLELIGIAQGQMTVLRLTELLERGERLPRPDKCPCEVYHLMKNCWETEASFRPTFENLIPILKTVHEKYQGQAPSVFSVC
T2 sequence (P08684 whole entry): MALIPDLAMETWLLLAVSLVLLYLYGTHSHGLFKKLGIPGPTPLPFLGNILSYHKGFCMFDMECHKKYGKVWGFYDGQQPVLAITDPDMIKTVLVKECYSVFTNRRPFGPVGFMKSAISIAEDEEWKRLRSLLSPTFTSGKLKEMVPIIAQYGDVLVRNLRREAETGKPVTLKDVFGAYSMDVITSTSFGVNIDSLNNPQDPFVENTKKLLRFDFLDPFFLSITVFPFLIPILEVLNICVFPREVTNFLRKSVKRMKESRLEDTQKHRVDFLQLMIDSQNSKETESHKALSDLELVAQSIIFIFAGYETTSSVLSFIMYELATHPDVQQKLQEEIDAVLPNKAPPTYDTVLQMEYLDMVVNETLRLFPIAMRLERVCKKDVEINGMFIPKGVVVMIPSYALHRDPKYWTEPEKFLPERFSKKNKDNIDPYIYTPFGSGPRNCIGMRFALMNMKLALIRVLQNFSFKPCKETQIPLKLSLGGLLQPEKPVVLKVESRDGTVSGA
Chain of JAK3 (P52333 781-1124): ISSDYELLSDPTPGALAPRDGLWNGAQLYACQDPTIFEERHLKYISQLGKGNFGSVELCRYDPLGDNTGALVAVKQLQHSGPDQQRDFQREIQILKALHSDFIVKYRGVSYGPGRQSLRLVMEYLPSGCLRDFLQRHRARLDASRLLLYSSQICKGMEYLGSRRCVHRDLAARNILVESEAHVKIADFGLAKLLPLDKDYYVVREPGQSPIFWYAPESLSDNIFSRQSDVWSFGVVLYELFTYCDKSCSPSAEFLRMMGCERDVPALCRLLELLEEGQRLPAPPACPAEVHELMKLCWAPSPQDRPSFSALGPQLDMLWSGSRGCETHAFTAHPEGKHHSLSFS

| IC50 (CYP1A2) | IC50 (CYP3A4; [2]) | IC50 (CYP3A4; [3]) | IC50 (JAK3) | IC50 (pSTAT3 in HT29 cells) | IC50 (TYK2) | hepatocyte CLint [1] | IC50 (CYP2C8) | selectivity for TYK2 compared to JAK3 (JAK3; biochemical assays) | Selectivity v TYK2: JAK3 (JAK3; ratio of JAK3 IC50 to TYK2 IC50) | Selectivity v TYK2: TYK2 (TYK2; ratio of IC50 to TYK2 IC50) | half-life ([1]; read-out: Mouse T1/2) | Structure (SMILES) | inhibition at 10 µM (pSTAT3 in HT29 cells) |
| --- | --- | --- | --- | --- | --- | --- | --- | --- | --- | --- | --- | --- | --- |
| > 30000 nM | > 30000 nM | > 30000 nM | 271 nM | < 100 nM | 5.1 nM | 40.5 µL/min/1e6 cells | > 8200 nM |  |  |  |  | NC(=O)c1nc(-c2c(Cl)cccc2Cl)oc1Nc1ccc(C(=O)N2CCOCC2)cc1 [Comparative Compound B, 2-(2,6-dichloro-phenyl)-5-[4-(morpholine-4-carbonyl)-phenylamino]-oxazole-4-carboxylic acid amide, reference compound] | 97.9% |
| > 30000 nM | > 30000 nM | > 30000 nM | 212 nM |  | 1.9 nM | 16.8 µL/min/1e6 cells | > 30000 nM |  |  |  |  | NC(=O)c1nc(-c2c(Cl)cccc2Cl)oc1Nc1ccc(C(=O)N2CCS(=O)(=O)CC2)cc1 [Compound (2)] | 95.9% |
| > 30000 nM | > 30000 nM | > 30000 nM | 772 nM | 231 nM | 4.7 nM | 28 µL/min/1e6 cells | > 30000 nM | ~164 fold | 164.3 | 1 | 39.2 min | NC(=O)c1nc(-c2c(Cl)cccc2Cl)oc1Nc1ccc(C(=O)N2CCS(=O)(=O)CC2)c(F)c1 [Compound (3)] | 95.9% |
